# pEC50: −log10 of the molar value.
# Biological target: T1, GLP-1R (Homo sapiens, UniProt P43220)
# T1 construct: host or cells: CRE-bla CHO-K1
# Experiment: EC20 GLP-1(9-36) PAM cAMP assay: dose response of compound in the presence of fixed concentration of GLP-1(9-36)
# Type: cell-based
# Details: GLP-1R CRE-bla CHO-K1 cells, compound dose response in presence of fixed concentration of GLP-1(9-36)
# Method in brief: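 Positive allosteric modulation read as cAMP rise: 12-point compound titration combined with a fixed EC20 level of GLP-1(9-36) on GLP-1R CHO-K1 cells, IBMX present, 30 min at 37 °C. Luminescent HitHunter signal converted to cAMP; nonlinear fit gave EC50 and Emax.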
# T1 sequence (P43220 24-463): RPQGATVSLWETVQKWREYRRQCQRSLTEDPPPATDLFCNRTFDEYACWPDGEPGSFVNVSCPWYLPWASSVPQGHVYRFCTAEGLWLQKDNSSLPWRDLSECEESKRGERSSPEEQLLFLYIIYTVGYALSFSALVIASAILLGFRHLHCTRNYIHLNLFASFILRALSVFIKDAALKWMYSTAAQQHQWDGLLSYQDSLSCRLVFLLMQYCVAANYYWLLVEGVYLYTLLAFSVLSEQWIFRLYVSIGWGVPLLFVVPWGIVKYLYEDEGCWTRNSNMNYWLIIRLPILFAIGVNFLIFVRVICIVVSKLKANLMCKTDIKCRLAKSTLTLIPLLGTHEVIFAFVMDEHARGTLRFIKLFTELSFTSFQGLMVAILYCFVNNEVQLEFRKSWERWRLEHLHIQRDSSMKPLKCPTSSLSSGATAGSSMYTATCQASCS
# T1 sequence (P01275 100-127 partner limits assumed): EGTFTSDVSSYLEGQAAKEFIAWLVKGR
row,SMILES,pEC50
1,CCCCCCCOc1ccc(-c2cnc(-c3ccc(C[C@H](NC(=O)c4ccc(C(C)(C)C)s4)C(=O)N4CCC[C@@H]4C(=O)O)cc3)nc2)cc1 [Compound 329],5.60 to 6.10
2,CCCCCCCOc1ccc(-c2cnc(-c3ccc(C[C@H](NC(=O)c4ccc(C(C)(C)C)s4)C(=O)N[C@@H](CCC(=O)O)C(=O)O)cc3)nc2)cc1 [Compound 330],5.60 to 6.10
3,CCCCCCCOc1ccc(-c2cnc(-c3ccc(C[C@H](NC(=O)c4ccc(C(C)(C)C)s4)C(=O)N[C@H](CCC(=O)O)C(=O)O)cc3)nc2)cc1 [Compound 331],5.60 to 6.10
4,CCCCCCCOc1ccc(-c2cnc(-c3ccc(C[C@H](NC(=O)c4ccc(C(C)(C)C)s4)C(=O)N[C@@H](Cc4cnc[nH]4)C(=O)O)cc3)nc2)cc1 [Compound 332],5.60 to 6.10
5,CCCCCCCOc1ccc(-c2cnc(-c3ccc(C[C@H](NC(=O)c4ccc(C(C)(C)C)s4)C(=O)N[C@@H](C)C(=O)O)cc3)nc2)cc1 [Compound 333],> 6.10
6,CCCCCCCOc1ccc(-c2cnc(-c3ccc(C[C@H](NC(=O)c4ccc(C(C)(C)C)s4)C(=O)N(C)CCC(=O)O)cc3)nc2)cc1 [Compound 334],5.60 to 6.10
7,CCCCCCCOc1ccc(-c2cnc(-c3ccc(C[C@H](NC(=O)c4ccc(C(C)(C)C)s4)C(=O)NC(C)(C)CC(=O)O)cc3)nc2)cc1 [Compound 335],5.60 to 6.10
8,CCCCCCCOc1ccc(-c2cnc(-c3ccc(C[C@H](NC(=O)c4ccc(C(C)(C)C)s4)C(=O)NCCC(=O)O)cc3)nc2)cc1 [Compound 336],> 6.10
9,CCCCCCCOc1ccc(-c2cnc(-c3ccc(C[C@H](NC(=O)c4ccc(C(C)(C)C)s4)C(=O)NC(CN(C)C)C(=O)O)cc3)nc2)cc1 (stereo partly shown) [Compound 337],5.60 to 6.10
10,CCCCCCCOc1ccc(-c2cnc(-c3ccc(C[C@H](NC(=O)c4ccc(C(C)(C)C)s4)C(=O)NC(CN4CCCC4)C(=O)O)cc3)nc2)cc1 (stereo partly shown) [Compound 338],5.60 to 6.10
11,CCCCCCCOc1ccc(-c2cnc(-c3ccc(C[C@H](NC(=O)c4ccc(C(C)(C)C)s4)C(=O)N4CCNC(C(=O)O)C4)cc3)nc2)cc1 (stereo partly shown) [Compound 339],5.60 to 6.10
12,CCCCCCCOc1ccc(-c2cnc(-c3ccc(C[C@H](NC(=O)c4ccc(C(C)(C)C)s4)C(=O)NCC4(C(=O)O)CC4)cc3)nc2)cc1 [Compound 340],5.60 to 6.10
13,CCCCCCCOc1ccc(-c2cnc(-c3ccc(C[C@H](NC(=O)c4ccc(C(C)(C)C)s4)C(=O)N[C@H](CCC(N)=O)C(=O)O)cc3)nc2)cc1 [Compound 341],> 6.10
14,CCCCCCOc1ccc(-c2cnc(-c3ccc(C[C@H](NC(=O)c4ccc(C(C)(C)C)s4)C(=O)NCC4(C(=O)O)CCC4)cc3)nc2)cc1 [Compound 342],5.60 to 6.10
15,CCCCCCCOc1ccc(-c2cnc(-c3ccc(C[C@H](NC(=O)c4ccc(C(C)(C)C)s4)C(=O)N[C@H](CC(=O)O)Cc4ccccc4)cc3)nc2)cc1 [Compound 343],5.60 to 6.10
16,CCCCCCCOc1ccc(-c2cnc(-c3ccc(C[C@H](NC(=O)c4ccc(C(C)(C)C)s4)C(=O)N4CCC(C(=O)O)C4)cc3)nc2)cc1 (stereo partly shown) [Compound 344],> 6.10
17,CCCCCCCOc1ccc(-c2cnc(-c3ccc(C[C@H](NC(=O)c4ccc(C(C)(C)C)s4)C(=O)N[C@H](C)CC(=O)O)cc3)nc2)cc1 [Compound 345],> 6.10
18,CCCCCCCOc1ccc(-c2cnc(-c3ccc(C[C@H](NC(=O)c4ccc(C(C)(C)C)s4)C(=O)N[C@@H](C)CC(=O)O)cc3)nc2)cc1 [Compound 346],5.60 to 6.10
19,CCCCCCCOc1ccc(-c2cnc(-c3ccc(C[C@H](NC(=O)c4ccc(C(C)(C)C)s4)C(=O)N4CCCC(C(=O)O)C4)cc3)nc2)cc1 (stereo partly shown) [Compound 347],> 6.10
20,CCCCCCCOc1ccc(-c2cnc(-c3ccc(C[C@H](NC(=O)c4ccc(C(C)(C)C)s4)C(=O)N4CC[C@@H](C(=O)O)C4)cc3)nc2)cc1 [Compound 348],5.60 to 6.10
21,CCCCCCCOc1ccc(-c2cnc(-c3ccc(C[C@H](NC(=O)c4ccc(C(C)(C)C)s4)C(=O)N4CC[C@H](C(=O)O)C4)cc3)nc2)cc1 [Compound 349],> 6.10
22,CCCCCCCOc1ccc(-c2cnc(-c3ccc(C[C@H](NC(=O)c4ccc(C(C)(C)C)s4)C(=O)NC(CC(=O)O)c4ccc(O)cc4)cc3)nc2)cc1 (stereo partly shown) [Compound 350],> 6.10
23,CC(C)(C)c1ccc(-c2cnc(-c3ccc(C[C@H](NC(=O)c4ccc(C(C)(C)C)s4)C(=O)NCC(=O)O)cc3)nc2)cc1 [Compound 351],> 6.10
24,CC(C)(C)c1ccc(-c2cnc(-c3ccc(C[C@H](NC(=O)c4ccc(C(C)(C)C)s4)C(=O)N[C@@H](CO)C(=O)O)cc3)nc2)cc1 [Compound 352],> 6.10
25,CC(C)(C)c1ccc(-c2cnc(-c3ccc(C[C@H](NC(=O)c4ccc(C(C)(C)C)s4)C(=O)N[C@H](CCC(N)=O)C(=O)O)cc3)nc2)cc1 [Compound 353],5.60 to 6.10
26,CC(C)(C)c1ccc(-c2cnc(-c3ccc(C[C@H](NC(=O)c4ccc(C(C)(C)C)s4)C(=O)N[C@H](CO)C(=O)O)cc3)nc2)cc1 [Compound 354],> 6.10

row,SMILES,pEC50
1,CC(C)(C)c1ccc(-c2cnc(-c3ccc(C[C@H](NC(=O)c4ccc(C(C)(C)C)s4)C(=O)N[C@H](CC(=O)O)C(=O)O)cc3)nc2)cc1 [Compound 355],5.60 to 6.10
2,CC(C)(C)c1ccc(-c2cnc(-c3ccc(C[C@H](NC(=O)c4ccc(C(C)(C)C)s4)C(=O)N[C@H](Cc4cnc[nH]4)C(=O)O)cc3)nc2)cc1 [Compound 356],5.60 to 6.10
3,C[C@@H](NC(=O)[C@H](Cc1ccc(-c2ncc(-c3ccc(C(C)(C)C)cc3)cn2)cc1)NC(=O)c1ccc(C(C)(C)C)s1)C(=O)O [Compound 357],5.60 to 6.10
4,CC(C)(C)c1ccc(-c2cnc(-c3ccc(C[C@H](NC(=O)c4ccc(C(C)(C)C)s4)C(=O)N4CCC[C@@H]4C(=O)O)cc3)nc2)cc1 [Compound 358],5.60 to 6.10
5,CC(C)(C)c1ccc(-c2cnc(-c3ccc(C[C@H](NC(=O)c4ccc(C(C)(C)C)s4)C(=O)N[C@H](CCC(=O)O)C(=O)O)cc3)nc2)cc1 [Compound 359],5.60 to 6.10
6,CC(C)(C)c1ccc(-c2cnc(-c3ccc(C[C@H](NC(=O)c4ccc(C(C)(C)C)s4)C(=O)N[C@@H](CCC(N)=O)C(=O)O)cc3)nc2)cc1 [Compound 360],5.60 to 6.10
7,CC(C)(C)c1ccc(-c2cnc(-c3ccc(C[C@H](NC(=O)c4ccc(C(C)(C)C)s4)C(=O)N[C@@H](CC(=O)O)C(=O)O)cc3)nc2)cc1 [Compound 361],5.60 to 6.10
8,CC(C)(C)c1ccc(-c2cnc(-c3ccc(C[C@H](NC(=O)c4ccc(C(C)(C)C)s4)C(=O)N4CCC[C@H]4C(=O)O)cc3)nc2)cc1 [Compound 362],5.30 to 5.60
9,CC(C)(C)c1ccc(-c2cnc(-c3ccc(C[C@H](NC(=O)c4ccc(C(C)(C)C)s4)C(=O)N[C@@H](CCC(=O)O)C(=O)O)cc3)nc2)cc1 [Compound 363],5.60 to 6.10
10,C[C@H](NC(=O)[C@H](Cc1ccc(-c2ncc(-c3ccc(C(C)(C)C)cc3)cn2)cc1)NC(=O)c1ccc(C(C)(C)C)s1)C(=O)O [Compound 364],5.60 to 6.10
11,CC(C)(C)c1ccc(-c2cnc(-c3ccc(C[C@H](NC(=O)c4ccc(C(C)(C)C)s4)C(=O)NC(CN4CCCC4)C(=O)O)cc3)nc2)cc1 (stereo partly shown) [Compound 365],5.30 to 5.60
12,CC(C)(C)c1ccc(-c2cnc(-c3ccc(C[C@H](NC(=O)c4ccc(C(C)(C)C)s4)C(=O)NC(CN)C(=O)O)cc3)nc2)cc1 (stereo partly shown) [Compound 366],5.30 to 5.60
13,CSCC[C@H](NC(=O)[C@H](Cc1ccc(-c2ncc(-c3ccc(C(C)(C)C)cc3)cn2)cc1)NC(=O)c1ccc(C(C)(C)C)s1)C(=O)O [Compound 367],5.60 to 6.10
14,CSCC[C@@H](NC(=O)[C@H](Cc1ccc(-c2ncc(-c3ccc(C(C)(C)C)cc3)cn2)cc1)NC(=O)c1ccc(C(C)(C)C)s1)C(=O)O [Compound 368],> 6.10
15,CCCCCCCOc1ccc(-c2cnc(-c3ccc(C[C@H](NC(=O)c4cnn(C(C)C)c4)C(=O)NCC(=O)O)cc3)nc2)cc1 [Compound 369],5.60 to 6.10
16,CC(C)n1cc(C(=O)N[C@@H](Cc2ccc(-c3ncc(-c4ccc(C(C)(C)C)cc4)cn3)cc2)C(=O)NCC(=O)O)cn1 [Compound 370],5.60 to 6.10
17,CCCCCCCOc1ccc(-c2cnc(-c3ccc(C[C@H](NC(=O)c4ncc(C(C)(C)C)s4)C(=O)NCC(=O)O)cc3)nc2)cc1 [Compound 371],> 6.10
18,CCCCCCCOc1ccc(-c2cnc(-c3ccc(C[C@H](NC(=O)c4cnn(C(C)(C)C)c4)C(=O)NCC(=O)O)cc3)nc2)cc1 [Compound 372],> 6.10
19,CC(C)(C)c1ccc(-c2cnc(-c3ccc(C[C@@H](NC(=O)c4ccc(C(C)(C)C)s4)C(=O)NCC(=O)O)cc3)nc2)cc1 [Compound 373],5.60 to 6.10
20,CCCCCCCOc1ccc(-c2cnc(-c3ccc(C[C@@H](NC(=O)c4ccc(C(C)(C)C)s4)C(=O)N[C@@H](C)C(=O)O)cc3)nc2)cc1 [Compound 374],5.60 to 6.10
21,CCCCCCCOc1ccc(-c2cnc(-c3ccc(C[C@@H](NC(=O)c4ccc(C(C)(C)C)s4)C(=O)N[C@H](C)C(=O)O)cc3)nc2)cc1 [Compound 375],> 6.10
22,CCCCCCCOc1ccc(-c2cnc(-c3ccc(C[C@@H](NC(=O)c4ccc(C(C)(C)C)s4)C(=O)NCC(=O)O)cc3)nc2)cc1 [Compound 376],5.60 to 6.10
23,CCCCCCCOc1ccc(-c2cnc(-c3ccc(C[C@@H](NC(=O)c4ccc(C(C)(C)C)s4)C(=O)N[C@@H](CCC(N)=O)C(=O)O)cc3)nc2)cc1 [Compound 377],> 6.10
24,CCCCCCCOc1ccc(-c2cnc(-c3ccc(C[C@@H](NC(=O)c4ccc(C(C)(C)C)s4)C(=O)N[C@@H](CO)C(=O)O)cc3)nc2)cc1 [Compound 378],> 6.10
25,CCCCCCCOc1ccc(-c2cnc(-c3ccc(C[C@@H](NC(=O)c4ccc(C(C)(C)C)s4)C(=O)N[C@H](CO)C(=O)O)cc3)nc2)cc1 [Compound 379],> 6.10
26,"CCCCCCCOc1ccc(-c2cnc(-c3ccc(C[C@H](NC(=O)c4ccc(C(C)(C)C)cc4)C(=O)NCC(=O)NS(C)(=O)=O)cc3)nc2)cc1 [Compound 381, (S)-4-(tert-butyl)-N-(3-(4-(5-(4-(heptyloxy)phenyl)pyrimidin-2-yl)phenyl)-1-((2-(methylsulfonamido)-2-oxoethyl)amino)-1-oxopropan-2-yl)benzamide]",5.60 to 6.10
